Calls of active or inactive are those of the source. No cut-off for these calls is given here.
Experiments:
ZR-75-1 = test: Potency index, ratio of FUdR GI50 to test compound GI50 for growth inhibition of human ZR-75-1 cells; assay type: functional
[1] = Half life of compound in PBS buffer at pH 7.4 at 200 uM by HPLC analysis; assay type: physicochemical
[2] = Half life in rat plasma at 200 uM measured up to 120 mins by HPLC-MS/MS analysis; assay type: ADME, cell-free
[3] = Half life of compound in human MDA-MB-231 cell homogenate; assay type: ADME, tissue-based
[4] = Selectivity ratio of substrate activity at PEPT1 (unknown origin) expressed in MDCK cells assessed as PEPT1 mediated drug uptake to drug uptake in MDCK cells
[5] = target: T1, Solute carrier family 15 member 1 (Homo sapiens, UniProt P46059); test: Substrate activity at PEPT1 (unknown origin) expressed in MDCK cells assessed as inhibition of gly-sar uptake incubated for 10 mins by HPLC/MS/MS analysis; assay type: cell-based
T1 sequence (P46059 whole entry): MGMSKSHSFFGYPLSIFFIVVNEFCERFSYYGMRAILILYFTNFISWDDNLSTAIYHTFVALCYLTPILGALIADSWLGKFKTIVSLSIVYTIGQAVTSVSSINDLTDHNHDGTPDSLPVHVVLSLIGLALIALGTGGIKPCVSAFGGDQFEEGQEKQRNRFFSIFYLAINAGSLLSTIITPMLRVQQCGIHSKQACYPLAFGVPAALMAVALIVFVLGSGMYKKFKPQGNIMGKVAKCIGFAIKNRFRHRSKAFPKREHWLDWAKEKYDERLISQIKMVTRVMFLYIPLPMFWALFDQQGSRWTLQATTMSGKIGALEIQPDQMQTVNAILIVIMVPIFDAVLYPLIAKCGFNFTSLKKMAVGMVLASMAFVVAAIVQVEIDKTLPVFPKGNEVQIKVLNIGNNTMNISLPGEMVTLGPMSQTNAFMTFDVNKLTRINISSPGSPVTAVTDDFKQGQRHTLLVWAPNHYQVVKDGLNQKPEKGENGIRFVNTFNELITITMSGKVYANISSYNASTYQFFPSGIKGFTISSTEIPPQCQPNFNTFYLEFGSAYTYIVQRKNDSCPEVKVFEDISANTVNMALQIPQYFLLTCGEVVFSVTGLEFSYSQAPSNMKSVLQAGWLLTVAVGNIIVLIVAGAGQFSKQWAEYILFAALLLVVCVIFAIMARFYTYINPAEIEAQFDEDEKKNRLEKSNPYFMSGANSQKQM

[6] = Drug uptake in Xenopus laevis oocytes at 0.5 mM incubated for 10 mins by HPLC analysis; assay type: ADME, cell-based; details: oocyte, 500 µM
thymidine phosphorylase = test: Half life of compound in thymidine phosphorylase buffer at 300 uM by HPLC analysis; assay type: physicochemical
MDA-MB-231 = test: Potency index, ratio of FUdR GI50 to test compound GI50 for growth inhibition of human MDA-MB-231 cells; assay type: functional
[7] = Half life of compound in human MIA PaCa-2 cell homogenate; assay type: ADME, tissue-based
[8] = Drug uptake in MDCK cells incubated for 10 mins by HPLC analysis; assay type: ADME, cell-based, Canis lupus familiaris; details: dog, 500 µM, dose 0.5 mM
MIA PaCa-2 = test: Potency index, ratio of FUdR GI50 to test compound GI50 for growth inhibition of human MIA-PaCa-2 cells; assay type: functional
[9] = target: T2, Sodium- and chloride-dependent neutral and basic amino acid transporter B(0+) (Homo sapiens, UniProt Q9UN76); test: Substrate activity at SLC6A14 (unknown origin) expressed in Xenopus laevis oocytes assessed as ABT0+ mediated drug uptake at 0.5 mM incubated for 10 mins by HPLC analysis; assay type: ADME, cell-based; details: oocyte, 500 µM
T2 sequence (Q9UN76 whole entry): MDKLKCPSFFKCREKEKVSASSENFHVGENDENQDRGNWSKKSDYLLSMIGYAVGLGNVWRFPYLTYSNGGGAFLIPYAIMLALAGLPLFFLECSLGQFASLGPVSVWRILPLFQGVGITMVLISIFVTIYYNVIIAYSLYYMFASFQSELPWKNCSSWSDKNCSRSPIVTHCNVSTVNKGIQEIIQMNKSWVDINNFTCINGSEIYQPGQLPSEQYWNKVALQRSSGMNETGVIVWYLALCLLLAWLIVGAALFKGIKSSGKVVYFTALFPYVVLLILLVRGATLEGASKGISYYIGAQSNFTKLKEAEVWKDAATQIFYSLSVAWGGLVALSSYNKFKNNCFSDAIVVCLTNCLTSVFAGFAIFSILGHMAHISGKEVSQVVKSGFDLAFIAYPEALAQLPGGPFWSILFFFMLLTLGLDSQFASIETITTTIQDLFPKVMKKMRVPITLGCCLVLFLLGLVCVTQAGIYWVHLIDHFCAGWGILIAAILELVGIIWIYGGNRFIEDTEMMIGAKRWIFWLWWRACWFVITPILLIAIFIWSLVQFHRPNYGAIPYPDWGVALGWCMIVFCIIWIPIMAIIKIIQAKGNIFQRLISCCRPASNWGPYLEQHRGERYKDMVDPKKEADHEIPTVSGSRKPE

[10] = target: T1, Solute carrier family 15 member 1; test: Substrate activity at PEPT1 (unknown origin) expressed in MDCK cells assessed as PEPT1 mediated drug uptake at 0.5 mM incubated for 10 mins by HPLC analysis; assay type: ADME, cell-based; details: 500 µM
[11] = Selectivity ratio of substrate activity at SLC6A14 (unknown origin) expressed in Xenopus laevis oocytes assessed as ABT0+ mediated drug uptake to drug uptake in Xenopus laevis oocytes; parameters: species or system Oocyte
[12] = Half life of compound in human ZR-75-1 cell homogenate; assay type: ADME, tissue-based
[13] = target: T2, Sodium- and chloride-dependent neutral and basic amino acid transporter B(0+); test: Substrate activity at SLC6A14 (unknown origin) expressed in Xenopus laevis oocytes assessed as inhibition of glycine uptake incubated for 10 mins by HPLC/MS/MS analysis; assay type: cell-based, Oocyte
[14] = target: T3, Sodium- and chloride-dependent neutral and basic amino acid transporter B(0+) (Homo sapiens) (UniProt Q9UN76); test: Substrate activity at SLC6A14 (unknown origin) expressed in Xenopus laevis oocytes assessed as increase in ABT0+ mediated drug uptake at 1 mM in presence of Na+ ion by HPLC analysis; assay type: cell-based; details: Oocyte
T3 sequence (whole entry): T2 sequence (Q9UN76 whole entry)

[15] = target: T3, Sodium- and chloride-dependent neutral and basic amino acid transporter B(0+) (Homo sapiens); test: Substrate activity at SLC6A14 (unknown origin) expressed in Xenopus laevis oocytes assessed as inhibition of drug uptake at 0.5 mM incubated for 10 mins in presence of glycine by HPLC analysis relative to control; assay type: cell-based; details: Oocyte
[16] = target: T3, Sodium- and chloride-dependent neutral and basic amino acid transporter B(0+) (Homo sapiens); test: Substrate activity at SLC6A14 (unknown origin) expressed in Xenopus laevis oocytes assessed as increase in ABT0+ mediated drug uptake at 1 mM in presence of Cl- ion by HPLC analysis; assay type: cell-based; details: Oocyte

| half-life at 200 µM [1] [min] | half-life at 200 µM [2] [min] | half-life [3] [min] | IC50 [5] [µM] | Drug uptake [6] [nmol/mg/min] | half-life at 300 µM (thymidine phosphorylase) [min] | half-life [7] [min] | Drug uptake [8] [nmol/mg/min] | Drug uptake [9] [nmol/mg/min] | Drug uptake [10] [nmol/mg/min] | half-life [12] [min] | IC50 [13] [µM] | Activity [14] | inhibition [15] [%] | Activity [16] | SMILES | RatioGI50 (ZR-75-1) | Ratio [4] | RatioGI50 (MDA-MB-231) | RatioGI50 (MIA PaCa-2) | Ratio [11] |
| --- | --- | --- | --- | --- | --- | --- | --- | --- | --- | --- | --- | --- | --- | --- | --- | --- | --- | --- | --- | --- |
| 179 | 124 | 19.3 | 13900 | 0.36 | 278 | 32.1 | < 0.04 | 1.89 | < 0.04 | 24.2 | 1570 | – | – | – | N[C@@H](CC(=O)O[C@H]1C[C@H](n2cc(F)c(=O)[nH]c2=O)O[C@@H]1CO)C(=O)O | 7 | 1 | 7 | 7 | 5.25 |
| 183 | 97.4 | 8.3 | 13000 | 0.28 | 289 | 10.2 | < 0.04 | 1.04 | < 0.04 | 7.9 | 1840 | – | – | – | N[C@@H](CCC(=O)O[C@H]1C[C@H](n2cc(F)c(=O)[nH]c2=O)O[C@@H]1CO)C(=O)O | 7 | 1 | 7 | 7 | 3.71 |
| 203 | 78.5 | 15.3 | 1120 | 0.31 | 408 | 11.3 | 0.41 | 2.34 | 1.78 | 16.4 | 980 | Active | 50 | Active | CC(C)[C@H](N)C(=O)OC[C@H]1O[C@@H](n2cc(F)c(=O)[nH]c2=O)C[C@@H]1O | 7 | 4.34 | 7 | 7 | 7.55 |
| 98.2 | 56.1 | 9.3 | – | 0.34 | 301 | 11.3 | < 0.04 | 1.12 | < 0.04 | 16.2 | 2980 | – | – | – | N[C@@H](CC(=O)OC[C@H]1O[C@@H](n2cc(F)c(=O)[nH]c2=O)C[C@@H]1OC(=O)C[C@H](N)C(=O)O)C(=O)O | 7 | 1 | 7 | 7 | 3.29 |
| 258 | 114 | 17.3 | 11500 | 0.35 | 256 | 20.1 | < 0.04 | 2.12 | < 0.04 | 12.3 | 1130 | Active | 50 | Active | N[C@@H](CCC(=O)OC[C@H]1O[C@@H](n2cc(F)c(=O)[nH]c2=O)C[C@@H]1O)C(=O)O | 7 | 1 | 7 | 7 | 6.23 |
| 106 | 37.8 | 10.1 | 2240 | 0.37 | 257 | 8.4 | 0.44 | 1.03 | 1.11 | 6.7 | 2010 | – | – | – | CC(C)[C@H](N)C(=O)OC[C@H]1O[C@@H](n2cc(F)c(=O)[nH]c2=O)C[C@@H]1OC(=O)[C@@H](N)C(C)C | 7 | 2.63 | 7 | 7 | 2.78 |
| 109 | 67.9 | 21.1 | – | 0.32 | 235 | 17.5 | < 0.04 | 0.78 | < 0.04 | 14.3 | 2650 | – | – | – | N[C@@H](CCC(=O)OC[C@H]1O[C@@H](n2cc(F)c(=O)[nH]c2=O)C[C@@H]1OC(=O)CC[C@H](N)C(=O)O)C(=O)O | 7 | 1 | 7 | 7 | 2.44 |

| SMILES | half-life at 200 µM [1] [min] | half-life at 200 µM [2] [min] | half-life [3] [min] | IC50 [5] [µM] | Drug uptake [6] [nmol/mg/min] | half-life at 300 µM (thymidine phosphorylase) [min] | half-life [7] [min] | Drug uptake [8] [nmol/mg/min] | Drug uptake [9] [nmol/mg/min] | Drug uptake [10] [nmol/mg/min] | half-life [12] [min] | IC50 [13] [µM] | Activity [14] | inhibition [15] [%] | Activity [16] | RatioGI50 (ZR-75-1) | Ratio [4] | RatioGI50 (MDA-MB-231) | RatioGI50 (MIA PaCa-2) | Ratio [11] |
| --- | --- | --- | --- | --- | --- | --- | --- | --- | --- | --- | --- | --- | --- | --- | --- | --- | --- | --- | --- | --- |
| CC(C)[C@H](N)C(=O)O[C@H]1C[C@H](n2cc(F)c(=O)[nH]c2=O)O[C@@H]1CO | 187 | 65.3 | 14.9 | 1890 | 0.39 | 368 | 12.2 | 0.43 | 1.56 | 1.23 | 9.2 | 1630 | – | – | – | 7 | 2.86 | 7 | 7 | 4 |

From ChEMBL document CHEMBL4665787, “Bifunctional and Unusual Amino Acid β- or γ-Ester Prodrugs of Nucleoside Analogues for Improved Affinity to ATB and Enhanced Metabolic Stability: An Application to Floxuridine” (J Med Chem, 2020)
